We go through 25 molecules from paper PMC6010129, “Evaluation of sulphonamide derivatives acting as inhibitors of human carbonic anhydrase isoforms I, II and Mycobacterium tuberculosisβ-class enzyme Rv3273” (Journal of Enzyme Inhibition and Medicinal Chemistry, 2018).

One assay deals with T1, hCA I (Homo sapiens, UniProt P00915).
T1 construct: gene CA1; cytosolic isoform
Description: stopped-flow CO2 hydrase assay. The class given is biochemical. The text has this:
stopped-flow CO2 hydrase assay on hCA I

The target in the next assay is T2, mtCA 3 (Mycobacterium tuberculosis, UniProt P96878).
T2 construct: beta-class carbonic anhydrase
The assay is described as follows: biochemical. On the set-up: stopped-flow CO2 hydration assay, phenol red absorbance at 557 nm, 15 min pre-incubation, Ki by Cheng-Prusoff. Here is the method: An Sx.18Mv-R Applied Photophysics (Oxford, UK) stopped-flow instrument has been used to assay the catalytic activity of various CA isozymes for CO2 hydration reaction. Phenol red (at a concentration of 0.2 mM) was used as indicator, working at the absorbance maximum of 557 nm, with 10 mM Hepes (pH 7.5) or 10 mM Tris (pH 8.5) as buffers, and 0.1 M Na2SO4 (for maintaining constant ionic strength, which is not inhibitory against these enzymes), following the CA-catalysed CO2 hydration reaction for a period of 10 s at 25 °C. The CO2 concentrations ranged from 1.7 to 17 mM for the determination of the kinetic parameters and […]. For each inhibitor at least six traces of the initial 5–10% of the reaction have been used for determining the initial rate. The uncatalysed rates were determined in the same manner and subtracted from the total observed rates. Stock solutions of inhibitors (10 mM) were prepared in distilled-deionised […] to 1 nM using the assay buffer. Inhibitor and enzyme solutions were pre-incubated together for 15 min (standard assay at room temperature) prior to assay, in order to allow for the formation of the enzyme–inhibitor complex. The inhibition constant (KI), was obtained by considering the classical Michaelis–Menten equation and the Cheng-Prusoff algorithm by using non-linear least squares fitting as reported earlier. The compounds 5 and 6 reported here were investigated as inhibitors of three CAs involved in crucial physiologic processes and known to act as drug targets, i.e. the human (h) isoforms hCA I and II (belonging to the α-CA class) and the bacterial enzyme mtCA3 from Mycobacterium tuberculosis (a β-class CA) (Table 3). Acetazolamide (AAZ), a clinically used sulphonamide has been employed as standard inhibitor in the assay.

In a further assay the target is T3, hCA II (Homo sapiens, UniProt P00918).
T3 construct: gene CA2; cytosolic isoform
The assay is described as follows: stopped-flow CO2 hydrase assay. The class given is biochemical. The text has this: stopped-flow CO2 hydrase assay on hCA II

T2 sequence (P96878 entry or part of it): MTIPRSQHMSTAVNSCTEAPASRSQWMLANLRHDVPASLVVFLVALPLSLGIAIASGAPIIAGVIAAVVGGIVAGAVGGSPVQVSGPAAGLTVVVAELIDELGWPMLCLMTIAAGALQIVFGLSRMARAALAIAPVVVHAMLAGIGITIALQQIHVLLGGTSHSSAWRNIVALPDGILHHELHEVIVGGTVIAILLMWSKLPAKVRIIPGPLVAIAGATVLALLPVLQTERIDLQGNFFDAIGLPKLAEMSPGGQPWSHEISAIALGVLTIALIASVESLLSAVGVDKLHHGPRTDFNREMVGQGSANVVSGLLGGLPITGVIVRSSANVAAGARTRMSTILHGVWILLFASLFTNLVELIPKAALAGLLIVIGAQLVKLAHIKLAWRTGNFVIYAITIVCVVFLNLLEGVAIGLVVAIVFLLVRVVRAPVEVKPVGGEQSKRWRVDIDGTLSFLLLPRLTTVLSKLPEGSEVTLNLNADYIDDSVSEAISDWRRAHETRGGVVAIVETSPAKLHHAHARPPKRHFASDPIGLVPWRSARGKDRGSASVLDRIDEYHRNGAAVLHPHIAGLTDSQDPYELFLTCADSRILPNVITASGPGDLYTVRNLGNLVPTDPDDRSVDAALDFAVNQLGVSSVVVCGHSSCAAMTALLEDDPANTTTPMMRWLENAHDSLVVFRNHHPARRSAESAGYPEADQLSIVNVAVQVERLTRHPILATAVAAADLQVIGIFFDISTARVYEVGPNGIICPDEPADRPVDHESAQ
T1 sequence (P00915 2-261): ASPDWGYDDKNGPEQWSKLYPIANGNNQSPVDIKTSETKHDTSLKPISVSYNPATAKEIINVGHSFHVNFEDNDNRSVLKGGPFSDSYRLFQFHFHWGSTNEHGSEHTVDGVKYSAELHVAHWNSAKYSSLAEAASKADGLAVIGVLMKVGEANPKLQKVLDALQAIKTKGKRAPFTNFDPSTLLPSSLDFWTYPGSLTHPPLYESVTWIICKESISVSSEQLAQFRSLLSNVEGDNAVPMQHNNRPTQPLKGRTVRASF

By Ki is commonly meant the equilibrium dissociation constant of an inhibitor or competing ligand from its target. A low value points to tighter binding. Take `NS(=O)(=O)c1ccc(NCC(=O)N2N=C(c3ccc(Cl)cc3)CC2c2ccccc2)cc1` (stereo not drawn) [5a, 4-((2-(3-(4-Chlorophenyl)-5-phenyl-4,5-dihydro-1H-pyrazol-1-yl)-2-oxoethyl)amino) benzenesulphonamide]: the Ki on hCA I is 306 nM; on mtCA 3 it was 1800 nM; on hCA II, 282 nM.
For the molecule `NS(=O)(=O)c1ccc(NCC(=O)N2N=C(c3ccc(Cl)cc3)CC2c2ccc(F)cc2)cc1` (stereo not drawn) [5b, 4-((2-(3-(4-Chlorophenyl)-5-(4-fluorophenyl)-4,5-dihydro-1H-pyrazol-1-yl)-2-oxoethyl)amino) benzenesulphonamide], the results for the Ki at hCA I and at hCA II were 441 nM and 500 nM, respectively.
With `NS(=O)(=O)c1ccc(NCC(=O)N2N=C(c3ccc(Cl)cc3)CC2c2ccc(Br)cc2)cc1` (stereo not drawn) [5c, 4-((2-(3-(4-Chlorophenyl)-5-(4-bromophenyl)-4,5-dihydro-1H-pyrazol-1-yl)-2-oxoethyl)amino) benzenesulphonamide], the results for the inhibition constant (Ki) at hCA I, on mtCA 3 and at hCA II were 634 nM, 732 nM and 2850 nM, respectively.
The like results for `Cc1ccc(C2CC(c3ccc(Cl)cc3)=NN2C(=O)CNc2ccc(S(N)(=O)=O)cc2)cc1` (stereo not drawn) [5d, 4-((2-(3-(4-Chlorophenyl)-5-(4-methylphenyl)-4,5-dihydro-1H-pyrazol-1-yl)-2-oxoethyl)amino)benzenesulphonamide] were, in that order, 93.4 nM, 175 nM and 426 nM.
As for `NS(=O)(=O)c1ccc(NCC(=O)N2N=C(c3ccc(Cl)cc3)CC2c2ccncc2)cc1` (stereo not drawn) [5e, 4-((2-(3-(4-Chlorophenyl)-5-(pyridin-4-yl)-4,5-dihydro-1H-pyrazol-1-yl)-2-oxoethyl)amino) benzenesulphonamide], the Ki on hCA I was 175 nM; on mtCA 3, 138 nM; on hCA II it was 42.3 nM.
The matching figures for `NS(=O)(=O)c1ccc(NCC(=O)N2N=C(c3ccc(Cl)cc3)CC2c2ccccc2Cl)cc1` (stereo not drawn) [5f, 4-((2-(3-(4-Chlorophenyl)-5-(2-chlorophenyl)-4,5-dihydro-1H-pyrazol-1-yl)-2-oxoethyl)amino)benzenesulphonamide]: 445 nM, 215 nM and 433 nM.
The matching figures for `NS(=O)(=O)c1ccc(NCC(=O)N2N=C(c3ccc(Cl)cc3)CC2c2ccccc2O)cc1` (stereo not drawn) [5g, 4-((2-(3-(4-Chlorophenyl)-5-(2-hydroxyphenyl)-4,5-dihydro-1H-pyrazol-1-yl)-2-oxoethyl)amino)benzenesulphonamide]: 174 nM, 147 nM and 578 nM.
As for `COc1ccc(C2CC(c3ccc(Cl)cc3)=NN2C(=O)CNc2ccc(S(N)(=O)=O)cc2)cc1OC` (stereo not drawn) [5h, 4-((2-(3-(4-Chlorophenyl)-5-(3,4-dimethoxyphenyl)-4,5-dihydro-1H-pyrazol-1-yl)-2-oxoethyl)amino)benzenesulphonamide], the figures for the inhibitory constant (Ki) on hCA I, at mtCA 3 and at hCA II were 280 nM, 186 nM and 424 nM, respectively.
On to `NS(=O)(=O)c1ccc(NCC(=O)N2N=C(c3ccc(Cl)cc3)CC2c2cccs2)cc1` (stereo not drawn) [5i, 4-((2-(3-(4-Chlorophenyl)-5-(thiophen-2-yl)-4,5-dihydro-1H-pyrazol-1-yl)-2-oxoethyl)amino)benzenesulphonamide], for which the values for the Ki on hCA I, at mtCA 3 and at hCA II were 276 nM, 233 nM and 373 nM, respectively.
`NS(=O)(=O)c1ccc(NCC(=O)N2N=C(c3ccc(Cl)cc3)CC2c2c3ccccc3cc3ccccc23)cc1` (stereo not drawn) [5j, 4-((2-(5-(Anthracen-9-yl)-3-(4-chlorophenyl)-4,5-dihydro-1H-pyrazol-1-yl)-2-oxoethyl)amino)benzenesulphonamide]: the Ki on hCA I was 91.8 nM; on mtCA 3, 157 nM; on hCA II it was 2020 nM.
On to `NS(=O)(=O)c1ccc(NCC(=O)N2N=C(c3ccc(Cl)cc3)CC2c2c[nH]c3ccccc23)cc1` (stereo not drawn) [5k, 4-((2-(3-(4-Chlorophenyl)-5-(1H-indol-3-yl)-4,5-dihydro-1H-pyrazol-1-yl)-2-oxoethyl)amino)benzenesulphonamide], for which the inhibition constant Ki at hCA I came to 440 nM; on mtCA 3, 127 nM; on hCA II, 392 nM.
Take `CC1=NN(C(=O)CNc2ccc(S(N)(=O)=O)cc2)C(c2ccccc2)C1` (stereo not drawn) [5l, 4-((2-(3-Methyl-5-phenyl-4,5-dihydro-1H-pyrazol-1-yl)-2-oxoethyl)amino) benzene sulphonamide]: the Ki is 760 nM at hCA I, 1580 nM on mtCA 3 and 810 nM at hCA II.
For `COc1ccc(C2CC(C)=NN2C(=O)CNc2ccc(S(N)(=O)=O)cc2)cc1` (stereo not drawn) [5m, 4-((2-(5-(4-Methoxyphenyl)-3-methyl-4,5-dihydro-1H-pyrazol-1-yl)-2-oxoethyl)amino)benzenesulphonamide], the Ki on hCA I was 2370 nM; on mtCA 3 it was greater than 10000 nM; at hCA II it was 5550 nM.
The matching figures for `CC1=NN(C(=O)CNc2ccc(S(N)(=O)=O)cc2)C(c2ccc(Cl)cc2)C1` (stereo not drawn) [5n, 4-((2-(5-(4-Chlorophenyl)-3-methyl-4,5-dihydro-1H-pyrazol-1-yl)-2-oxoethyl)amino)benzenesulphonamide]: 835 nM, 1290 nM and 944 nM.
The matching figures for `CC1=NN(C(=O)CNc2ccc(S(N)(=O)=O)cc2)C(c2ccc(C)cc2)C1` (stereo not drawn) [5o, 4-((2-(3-Methyl-5-(p-tolyl)-4,5-dihydro-1H-pyrazol-1-yl)-2-oxoethyl)amino)benzene sulphonamide]: 898 nM, 275 nM and 3460 nM.
The like results for `CC1=NN(C(=O)CNc2ccc(S(N)(=O)=O)cc2)C(c2ccc(F)cc2)C1` (stereo not drawn) [5p, 4-((2-(5-(4-Fluorophenyl)-3-methyl-4,5-dihydro-1H-pyrazol-1-yl)-2-oxoethyl)amino)benzenesulphonamide] were, in that order, 665 nM, 250 nM and 903 nM.
For the molecule `CC1=NN(C(=O)CNc2ccc(S(N)(=O)=O)cc2)C(c2ccccc2Cl)C1` (stereo not drawn) [5q, 4-((2-(5-(2-Chlorophenyl)-3-methyl-4,5-dihydro-1H-pyrazol-1-yl)-2-oxoethyl)amino)benzenesulphonamide], the results for the Ki on hCA I, on mtCA 3 and on hCA II were 742 nM, 623 nM and 648 nM, respectively.
For the molecule `CC1=NN(C(=O)CNc2ccc(S(N)(=O)=O)cc2)C(c2ccccc2O)C1` (stereo not drawn) [5r, 4-((2-(5-(2-Hydroxyphenyl)-3-methyl-4,5-dihydro-1H-pyrazol-1-yl)-2-oxoethyl)amino)benzenesulphonamide], the Ki turned out to be 721 nM on hCA I, 1590 nM on mtCA 3 and 83.1 nM on hCA II.
On to `CC1=NN(C(=O)CNc2ccc(S(N)(=O)=O)cc2)C(c2ccc(O)cc2)C1` (stereo not drawn) [5s, 4-((2(5-(4-Hydroxyphenyl)-3-methyl-4,5-dihydro-1H-pyrazol-1-yl)-2-oxoethyl)amino)benzenesulphonamide], for which the inhibitory constant (Ki) on hCA I is 738 nM; at mtCA 3, 265 nM; at hCA II, 73.6 nM.
With `CC1=NN(C(=O)CNc2ccc(S(N)(=O)=O)cc2)C(c2ccc(N(C)C)cc2)C1` (stereo not drawn) [5t], the Ki on hCA I was 842 nM; on mtCA 3, 1740 nM; on hCA II, 5150 nM.
The like results for `CC1=NN(C(=O)CNc2ccc(S(N)(=O)=O)cc2)C(c2cccs2)C1` (stereo not drawn) [5u, 4-((2-(3-Methyl-5-(thiophen-2-yl)-4,5-dihydro-1H-pyrazol-1-yl)-2-oxoethyl)amino)benzenesulphonamide] were, in that order, 798 nM, 1450 nM and 126 nM.
The matching figures for `NS(=O)(=O)c1ccc(NCC(=O)N/N=C/c2ccccc2)cc1` [6a, 4-((2-(2-Benzylidenehydrazinyl)-2-oxoetehyl)amino) benzenesulphonamide]: 220 nM, greater than 10000 nM and 549 nM.
The matching figures for `Cc1ccc(C=NNC(=O)CNc2ccc(S(N)(=O)=O)cc2)cc1` [6b, 4-((2-(2-(4-Methylbenzylidene) hydrazinyl)-2-oxoethyl)amino)benzene sulphonamide]: 266 nM, greater than 10000 nM and 914 nM.
Regarding `COc1ccc(/C=N/NC(=O)CNc2ccc(S(N)(=O)=O)cc2)cc1OC` [6e, 4-((2-(2-(3,4-Dimethoxybenzylidene)hydrazinyl)-2-oxoethyl)amino) benzenesulphonamide], the Ki at hCA I worked out at 1800 nM; on hCA II it was 758 nM.
The matching figures for `NS(=O)(=O)c1ccc(NCC(=O)N/N=C/c2ccc(O)cc2)cc1` [6g, 4-((2-(2-(4-Hydroxybenzylidene)hydrazinyl)-2-oxoethyl)amino) benzenesulphonamide]: 327 nM and 255 nM.
